{"source": "patent US11306081B2", "about": "“Phenylacetamides as inhibitors of rock” (BRISTOL-MYERS SQUIBB COMPANY, priority 2017, dated 2022)", "key": {"ROCK2": {"biological_target": "ROCK2 (Homo sapiens (Human), UniProt O75116)", "sequence (O75116 whole entry, species assumed)": "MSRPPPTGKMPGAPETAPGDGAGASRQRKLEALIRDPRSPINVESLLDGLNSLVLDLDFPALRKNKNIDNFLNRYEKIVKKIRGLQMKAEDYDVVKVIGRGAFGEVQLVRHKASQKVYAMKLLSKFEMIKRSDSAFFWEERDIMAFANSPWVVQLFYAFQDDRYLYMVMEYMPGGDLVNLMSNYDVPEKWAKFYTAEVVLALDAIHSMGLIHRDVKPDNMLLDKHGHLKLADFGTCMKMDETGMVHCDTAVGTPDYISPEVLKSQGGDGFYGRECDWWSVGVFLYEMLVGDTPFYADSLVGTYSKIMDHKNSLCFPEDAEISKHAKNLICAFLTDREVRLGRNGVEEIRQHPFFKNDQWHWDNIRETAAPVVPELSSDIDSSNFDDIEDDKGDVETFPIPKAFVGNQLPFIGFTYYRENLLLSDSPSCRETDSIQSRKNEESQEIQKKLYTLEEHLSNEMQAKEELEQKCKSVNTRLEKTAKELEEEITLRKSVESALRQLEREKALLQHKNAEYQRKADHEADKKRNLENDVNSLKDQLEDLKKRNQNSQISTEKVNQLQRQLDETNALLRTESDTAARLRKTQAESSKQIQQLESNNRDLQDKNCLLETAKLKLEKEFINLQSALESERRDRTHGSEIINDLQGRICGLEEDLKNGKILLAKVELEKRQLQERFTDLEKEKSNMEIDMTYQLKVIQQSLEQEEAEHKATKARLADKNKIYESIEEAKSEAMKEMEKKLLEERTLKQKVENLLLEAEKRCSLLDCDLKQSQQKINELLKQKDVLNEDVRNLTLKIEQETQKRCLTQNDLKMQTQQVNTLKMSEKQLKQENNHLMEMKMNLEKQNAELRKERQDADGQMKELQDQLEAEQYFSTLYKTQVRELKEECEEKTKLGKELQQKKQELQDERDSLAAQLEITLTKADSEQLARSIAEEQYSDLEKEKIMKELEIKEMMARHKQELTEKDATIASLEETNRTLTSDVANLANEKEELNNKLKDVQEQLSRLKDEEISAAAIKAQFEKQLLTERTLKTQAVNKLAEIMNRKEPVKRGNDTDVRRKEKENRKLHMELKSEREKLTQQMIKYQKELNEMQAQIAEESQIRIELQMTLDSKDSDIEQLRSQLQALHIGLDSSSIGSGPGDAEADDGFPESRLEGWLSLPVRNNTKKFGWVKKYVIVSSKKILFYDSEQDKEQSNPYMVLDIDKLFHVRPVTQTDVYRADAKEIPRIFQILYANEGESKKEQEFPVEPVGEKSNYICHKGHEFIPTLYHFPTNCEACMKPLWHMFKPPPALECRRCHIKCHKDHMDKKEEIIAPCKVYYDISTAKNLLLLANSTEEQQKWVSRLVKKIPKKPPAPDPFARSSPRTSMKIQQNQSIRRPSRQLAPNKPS", "experiment": "ROCK assay (LABCHIP 3000 peptide phosphorylation assay)", "format": "biochemical", "conditions": "5 μM ATP, 1.5 μM peptide substrate, dose-response", "procedure,_shortened": "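Rho kinase variants in 20 mM HEPES pH 7.5, 20 mM MgCl2, 0.015% Brij-35, 4 mM DTT, 5 μM ATP, 1.5 μM FITC-AHA-AKRRRLSSLRA-OH peptide; DMSO <2%. EDTA-stopped; phosphorylated/non-phosphorylated peptide separated by microfluidic LabChip readout. Dose-response inhibition curve-fitted to give IC50.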"}, "[1]": {"test_system": "spontaneously hypertensive rat, renal hypertensive rat and deoxycortisone acetate salt hypertensive rat models", "conditions": "cited from earlier work"}, "[2]": {"test_system": "neointimal formation in rats", "conditions": "cited from earlier work"}, "Dahl salt-sensitive rats": {"test_system": "Dahl salt-sensitive rats", "conditions": "rat, in vivo; cited from earlier work"}, "[3]": {"test_system": "porcine model of IL-1 beta-induced coronary stenosis", "conditions": "long term treatment; cited from earlier work"}, "rat stroke model": {"test_system": "rat stroke model", "conditions": "in vivo; cited from earlier work"}}, "note": "pIC50: −log10 of the molar value. Where two headings read alike, the source gives them in different places.", "data": [{"compound": "NC(=O)c1cccnc1Oc1ccc(CC(=O)Nc2nc3cccc(F)c3n2CC2CC2)cc1F", "note": "[Example 164, 2-(4-(2-((1-(cyclopropyl-methyl)-7-fluoro-1H-benzo[d]-imidazol-2-yl)-amino)-2-oxo-ethyl)-2-fluoro-phenoxy)nicotin-amide]", "values": [{"measurement": "pIC50", "setting": "ROCK2", "value": 7.92}]}, {"compound": "NC(=O)c1cccnc1Oc1ccc(CC(=O)Nc2nc3cc(F)ccc3n2CC2CC2)cc1F", "note": "[Example 165]", "values": [{"measurement": "pIC50", "setting": "ROCK2", "value": 7.59}]}, {"compound": "NC(=O)c1cccnc1Oc1ccc(CC(=O)Nc2nc3ccc(F)cc3n2CC(F)F)cc1F", "note": "[Example 166, 2-(4-(2-((1-(2,2-difluoroethyl)-6-fluoro-1H-benzo[d]-imidazol-2-yl)-amino)-2-oxo-ethyl)-2-fluoro-phenoxy)nicotin-amide]", "values": [{"measurement": "pIC50", "setting": "ROCK2", "value": 7.62}]}, {"compound": "NC(=O)c1cccnc1Oc1ccc(CC(=O)Nc2nc3ccccc3n2CC2CC2)cc1F", "note": "[Example 167, 2-(4-(2-((1-(cyclo-propylmethyl)-1H-benzo[d]-imidazol-2-yl)-amino)-2-oxo-ethyl)-2-fluoro-phenoxy)nicotin-amide]", "values": [{"measurement": "pIC50", "setting": "ROCK2", "value": 7.60}]}, {"compound": "NC(=O)c1cccnc1Oc1ccc(CC(=O)Nc2nc3ccc(F)cc3n2CC2CC2)cc1F", "note": "[Example 168, 2-(4-(2-((1-(cyclopropyl-methyl)-6-fluoro-1H-benzo[d]-imidazol-2-yl)-amino)-2-oxo-ethyl)-2-fluoro-phenoxy)nicotin-amide]", "values": [{"measurement": "pIC50", "setting": "ROCK2", "value": 7.74}]}, {"compound": "NC(=O)c1cccnc1Oc1ccc(CC(=O)Nc2nc3c(F)cccc3n2CC(F)F)cc1F", "note": "[Example 169, 2-(4-(2-((1-(2,2-difluoroethyl)-4-fluoro-1H-benzo[d]-imidazol-2-yl)-amino)-2-oxo-ethyl)-2-fluoro-phenoxy)nicotin-amide]", "values": [{"measurement": "pIC50", "setting": "ROCK2", "value": 7.89}]}, {"compound": "NC(=O)c1cccnc1Oc1ccc(CC(=O)Nc2nc3ccc(OCc4ccccc4)cc3n2CC2CC2)cc1F", "note": "[Example 170, 2-(4-(2-((6-(benzyloxy)-1-(cyclo-propylmethyl)-1H-benzo[d]-imidazol-2-yl)-amino)-2-oxo-ethyl)-2-fluoro-phenoxy)nicotin-amide]", "values": [{"measurement": "pIC50", "setting": "ROCK2", "value": 7.51}]}, {"compound": "NC(=O)c1cccnc1Oc1ccc(CC(=O)Nc2nc3c(F)cccc3n2CC2CC2)cc1Cl", "note": "[Example 171, 2-(2-chloro-4-(2-((1-(cyclo-propylmethyl)-4-fluoro-1H-benzo[d]-imidazol-2-yl)-amino)-2-oxo-ethyl)phenoxy)-nicotinamide]", "values": [{"measurement": "pIC50", "setting": "ROCK2", "value": 8.52}]}, {"compound": "NC(=O)c1cccnc1Oc1ccc(CC(=O)Nc2nc3ccc(F)cc3n2CC2CC2)cc1Cl", "note": "[Example 172, 2-(2-chloro-4-(2-((1-(cyclopropyl-methyl)-6-fluoro-1H-benzo[d]-imidazol-2-yl)-amino)-2-oxo-ethyl)phenoxy)-nicotinamide]", "values": [{"measurement": "pIC50", "setting": "ROCK2", "value": 8.15}]}, {"compound": "NC(=O)c1cccnc1Oc1ccc(CC(=O)Nc2nc3c(F)cccc3n2CC(F)F)cc1Cl", "note": "[Example 173, 2-(2-chloro-4-(2-((1-(2,2-difluoro-ethyl)-4-fluoro-1H-benzo[d]-imidazol-2-yl)-amino)-2-oxo-ethyl)phenoxy)-nicotinamide]", "values": [{"measurement": "pIC50", "setting": "ROCK2", "value": 8.10}]}, {"compound": "NC(=O)c1cccnc1Oc1ccc(CC(=O)Nc2nc3cc(F)ccc3n2CC2CC2)cc1Cl", "note": "[Example 174, 2-(2-chloro-4-(2-((1-(cyclo-propylmethyl)-5-fluoro-1H-benzo[d]-imidazol-2-yl)-amino)-2-oxo-ethyl)phenoxy)-nicotinamide]", "values": [{"measurement": "pIC50", "setting": "ROCK2", "value": 8.00}]}, {"compound": "NC(=O)c1cccnc1Oc1ccc(CC(=O)Nc2nc3ccc(C(F)(F)F)cc3n2CC2CC2)cc1F", "note": "[Example 175, 2-(4-(2-((1-(cyclopropyl-methyl)-6-(trifluoro-methyl)-1H-benzo[d]-imidazol-2-yl)amino)-2-oxoethyl)-2-fluorophenoxy)-nicotinamide]", "values": [{"measurement": "pIC50", "setting": "ROCK2", "value": 7.36}]}, {"compound": "NC(=O)c1cccnc1Oc1ccc(CC(=O)Nc2nc3ccc(C(F)(F)F)cc3n2CC2CC2)cc1Cl", "note": "[Example 176, 2-(2-chloro-4-(2-((1-(cyclo-propylmethyl)-6-(trifluoro-methyl)-1H-benzo[d]-imidazol-2-yl)-amino)-2-oxo-ethyl)phenoxy)-nicotinamide]", "values": [{"measurement": "pIC50", "setting": "ROCK2", "value": 7.80}]}, {"compound": "NC(=O)c1cccnc1Oc1ccc(CC(=O)Nc2nc3cc(C(F)(F)F)ccc3n2CC2CC2)cc1Cl", "note": "[Example 177, 2-(2-chloro-4-(2-((1-(cyclo-propylmethyl)-5-(trifluoro-methyl)-1H-benzo[d]-imidazol-2-yl)-amino)-2-oxo-ethyl)phenoxy)-nicotinamide]", "values": [{"measurement": "pIC50", "setting": "ROCK2", "value": 8.15}]}, {"compound": "CC(C)(O)COc1ccc2nc(NC(=O)Cc3ccc(Oc4ncccc4C(N)=O)c(F)c3)n(CC3CC3)c2c1", "note": "[Example 178, 2-(4-(2-((1-(cyclopropylmethyl)-6-(2-hydroxy-2-methylpropoxy)-1H-benzo[d]imidazol-2-yl)amino)-2-oxoethyl)-2-fluorophenoxy)nicotinamide]", "values": [{"measurement": "pIC50", "setting": "ROCK2", "value": 7.85}]}, {"compound": "C[C@@H](N)[C@H]1CC[C@H](C(=O)Nc2ccncc2)CC1", "note": "[Example Y-27632, Y-27632]", "values": [{"measurement": "blood pressure", "setting": "[1]; control rats", "value": "only a minor effect on blood pressure"}, {"measurement": "blood pressure", "setting": "[1]; three rat models of hypertension", "value": "significantly decrease blood pressure"}, {"measurement": "neointimal formation", "setting": "[2]", "value": "inhibited neointimal formation"}, {"measurement": "ventricular hypertrophy, fibrosis and function", "setting": "Dahl salt-sensitive rats", "value": "improve ventricular hypertrophy, fibrosis and function"}]}, {"compound": "O=S(=O)(c1cccc2cnccc12)N1CCCNCC1", "note": "[fasudil]", "values": [{"measurement": "coronary constrictive remodeling", "setting": "[3]", "value": "promote a regression of coronary constrictive remodeling"}, {"measurement": "coronary stenosis", "setting": "[3]", "value": "progressively reduce coronary stenosis"}, {"measurement": "infarct size and neurologic deficit", "setting": "rat stroke model", "value": "reduce both the infarct size and neurologic deficit"}]}]}
